Values after ≈ are worked out from the molar mass of the structure shown. Positions of bridges follow the written chain, without caps; N, C: chain ends. Non-standard residues stand in square brackets, D forms with d. Residues, ends and D or L forms follow the SMILES beside them. *: point of attachment. X36 = O=C(c1cc(C(F)(F)F)cc(C(F)(F)F)c1)*; Benzoyl(4-Me) = Cc1ccc(C(=O)*)cc1; X38 = O=C(c1ccc(Cl)cc1C(F)(F)F)*; X30 = Cc1cc(C)c(C(=O)*)c(C)c1; X32 = Cc1ccc(C(=O)*)c(Cl)c1; X29 = Cc1cc(C)cc(C(=O)*)c1; X26 = Cc1ccc(CC(=O)*)cc1C; X28 = O=C(c1ccc(F)cc1Cl)*; X31 = O=C(c1ccc(Cl)cc1F)*; Octanoyl = CCCCCCCC(=O)*; X42 = Cc1ccc(C(=O)*)cc1F; Dab = NCC[C@H](N)C(=O)O; Abu = CC[C@H](N)C(=O)O; Dap = NC[C@H](N)C(=O)O
Key:
Acinetobacter baumannii = system: Acinetobacter baumannii
How it was run: (§1)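 Broth microdilution, CAMHB, per CLSI M100-S18; compounds as TFA salts; polymyxin B (sulphate) control; read-out MIC.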

Enterobacter cloacae = system: Enterobacter cloacae
How it was run: as §1

Pseudomonas aeruginosa = system: Pseudomonas aeruginosa
How it was run: as §1

| Structure (SMILES) | Minimum inhibitory concentration, Ab A ATCC 17978 (Acinetobacter baumannii) [µg/mL] | Minimum inhibitory concentration, Ab ATCC 19606 (Acinetobacter baumannii) [µg/mL] | Minimum inhibitory concentration, Ab FADDI-AB034 (Acinetobacter baumannii) [µg/mL] | Minimum inhibitory concentration, Ec FADDI-EC001 (Enterobacter cloacae) [µg/mL] | Minimum inhibitory concentration, Ec FADDI-EC003 (Enterobacter cloacae) [µg/mL] | Minimum inhibitory concentration, Ec FADDI-EC006 (Enterobacter cloacae) [µg/mL] | Minimum inhibitory concentration, Pa ATCC 27853 (Pseudomonas aeruginosa) [µg/mL] | Minimum inhibitory concentration, Pa FADDI-PA022 (Pseudomonas aeruginosa) [µg/mL] | Minimum inhibitory concentration, Pa FADDI-PA025 (Pseudomonas aeruginosa) [µg/mL] |
| --- | --- | --- | --- | --- | --- | --- | --- | --- | --- |
| CC[C@@H]1NC(=O)[C@@H](CC(C)C)NC(=O)[C@H](CCN)NC(=O)[C@@H](NC(=O)[C@H](CN)NC(=O)[C@@H](NC(=O)[C@H](CCN)NC(=O)c2c(C)cc(C)cc2C)[C@@H](C)O)CCNC(=O)[C@H]([C@@H](C)O)NC(=O)[C@H](CCN)NC(=O)[C@H](CCN)NC1=O [Compound 92] (X30-[Dab]T[Dap][Dab][Dab][dL][Abu][Dab][Dab]T; lactam 4-C) | 0.5 (≈ 0.441 µM) | 4 (≈ 3.53 µM) | 4 (≈ 3.53 µM) | <0.125 | 0.25 (≈ 0.221 µM) | 2 (≈ 1.76 µM) | 0.5 (≈ 0.441 µM) | 0.5 (≈ 0.441 µM) | 4 (≈ 3.53 µM) |
| CC[C@@H]1NC(=O)[C@@H](CC(C)C)NC(=O)[C@H](CCN)NC(=O)[C@@H](NC(=O)[C@H](CN)NC(=O)[C@@H](NC(=O)[C@H](CCN)NC(=O)c2cc(C)cc(C)c2)[C@@H](C)O)CCNC(=O)[C@H]([C@@H](C)O)NC(=O)[C@H](CCN)NC(=O)[C@H](CCN)NC1=O [Compound 93] (X29-[Dab]T[Dap][Dab][Dab][dL][Abu][Dab][Dab]T; lactam 4-C) | 0.5 (≈ 0.447 µM) | 1 (≈ 0.893 µM) | 0.5 (≈ 0.447 µM) | 0.25 (≈ 0.223 µM) | 1 (≈ 0.893 µM) | 4 (≈ 3.57 µM) | 2 (≈ 1.79 µM) | 4 (≈ 3.57 µM) | 2 (≈ 1.79 µM) |
| CC[C@@H]1NC(=O)[C@@H](CC(C)C)NC(=O)[C@H](CCN)NC(=O)[C@@H](NC(=O)[C@H](CN)NC(=O)[C@@H](NC(=O)[C@H](CCN)NC(=O)c2cc(C(F)(F)F)cc(C(F)(F)F)c2)[C@@H](C)O)CCNC(=O)[C@H]([C@@H](C)O)NC(=O)[C@H](CCN)NC(=O)[C@H](CCN)NC1=O [Compound 97] (X36-[Dab]T[Dap][Dab][Dab][dL][Abu][Dab][Dab]T; lactam 4-C) | <0.125 | 0.5 (≈ 0.407 µM) | 0.25 (≈ 0.204 µM) | 0.5 (≈ 0.407 µM) | 0.25 (≈ 0.204 µM) | 0.5 (≈ 0.407 µM) | 0.5 (≈ 0.407 µM) | 0.5 (≈ 0.407 µM) | 1 (≈ 0.815 µM) |
| CC[C@@H]1NC(=O)[C@@H](CC(C)C)NC(=O)[C@H](CCN)NC(=O)[C@@H](NC(=O)[C@H](CN)NC(=O)[C@@H](NC(=O)[C@H](CCN)NC(=O)c2ccc(C)cc2)[C@@H](C)O)CCNC(=O)[C@H]([C@@H](C)O)NC(=O)[C@H](CCN)NC(=O)[C@H](CCN)NC1=O [Compound 98] ({Benzoyl(4-Me)}-[Dab]T[Dap][Dab][Dab][dL][Abu][Dab][Dab]T; lactam 4-C) | 2 (≈ 1.81 µM) | 2 (≈ 1.81 µM) | 2 (≈ 1.81 µM) | 1 (≈ 0.905 µM) | 0.25 (≈ 0.226 µM) | 2 (≈ 1.81 µM) | 0.5 (≈ 0.452 µM) | 0.5 (≈ 0.452 µM) | 2 (≈ 1.81 µM) |
| CC[C@@H]1NC(=O)[C@@H](CC(C)C)NC(=O)[C@H](CCN)NC(=O)[C@@H](NC(=O)[C@H](CN)NC(=O)[C@@H](NC(=O)[C@H](CCN)NC(=O)c2ccc(C)cc2Cl)[C@@H](C)O)CCNC(=O)[C@H]([C@@H](C)O)NC(=O)[C@H](CCN)NC(=O)[C@H](CCN)NC1=O [Compound 101] (X32-[Dab]T[Dap][Dab][Dab][dL][Abu][Dab][Dab]T; lactam 4-C) | 0.5 (≈ 0.439 µM) | 0.5 (≈ 0.439 µM) | 1 (≈ 0.877 µM) | <0.125 | <0.125 | 0.25 (≈ 0.219 µM) | 0.5 (≈ 0.439 µM) | 2 (≈ 1.75 µM) | 2 (≈ 1.75 µM) |
| CC[C@@H]1NC(=O)[C@@H](CC(C)C)NC(=O)[C@H](CCN)NC(=O)[C@@H](NC(=O)[C@H](CN)NC(=O)[C@@H](NC(=O)[C@H](CCN)NC(=O)c2ccc(C)c(F)c2)[C@@H](C)O)CCNC(=O)[C@H]([C@@H](C)O)NC(=O)[C@H](CCN)NC(=O)[C@H](CCN)NC1=O [Compound 102] (X42-[Dab]T[Dap][Dab][Dab][dL][Abu][Dab][Dab]T; lactam 4-C) | 1 (≈ 0.89 µM) | 2 (≈ 1.78 µM) | 1 (≈ 0.89 µM) | 1 (≈ 0.89 µM) | 0.5 (≈ 0.445 µM) | 4 (≈ 3.56 µM) | 0.5 (≈ 0.445 µM) | 0.5 (≈ 0.445 µM) | 2 (≈ 1.78 µM) |
| CC[C@@H]1NC(=O)[C@@H](CC(C)C)NC(=O)[C@H](CCN)NC(=O)[C@@H](NC(=O)[C@H](CN)NC(=O)[C@@H](NC(=O)[C@H](CCN)NC(=O)Cc2ccc(C)c(C)c2)[C@@H](C)O)CCNC(=O)[C@H]([C@@H](C)O)NC(=O)[C@H](CCN)NC(=O)[C@H](CCN)NC1=O [Compound 103] (X26-[Dab]T[Dap][Dab][Dab][dL][Abu][Dab][Dab]T; lactam 4-C) | 0.5 (≈ 0.441 µM) | 0.5 (≈ 0.441 µM) | 0.5 (≈ 0.441 µM) | <0.125 | <0.125 | 0.5 (≈ 0.441 µM) | 0.5 (≈ 0.441 µM) | 0.5 (≈ 0.441 µM) | 2 (≈ 1.76 µM) |
| CCCCCCCC(=O)N[C@@H](CCN)C(=O)N[C@H](C(=O)N[C@@H](CN)C(=O)N[C@H]1CCNC(=O)[C@H]([C@@H](C)O)NC(=O)[C@H](CCN)NC(=O)[C@H](CCN)NC(=O)[C@H](C)NC(=O)[C@@H](Cc2ccccc2)NC(=O)[C@H](CCN)NC1=O)[C@@H](C)O [Compound 128] (Octanoyl-[Dab]T[Dap][Dab][Dab][dF]A[Dab][Dab]T; lactam 4-C) | 0.25 (≈ 0.221 µM) | 0.25 (≈ 0.221 µM) | 0.25 (≈ 0.221 µM) | <0.125 | 0.25 (≈ 0.221 µM) | 0.5 (≈ 0.441 µM) | 0.5 (≈ 0.441 µM) | 1 (≈ 0.882 µM) | 4 (≈ 3.53 µM) |
| CC[C@@H]1NC(=O)[C@@H](CC(C)C)NC(=O)[C@H](CCN)NC(=O)[C@@H](NC(=O)[C@H](CN)NC(=O)[C@@H](NC(=O)[C@H](CCN)NC(=O)c2ccc(Cl)cc2F)[C@@H](C)O)CCNC(=O)[C@H]([C@@H](C)O)NC(=O)[C@H](CCN)NC(=O)[C@H](CCN)NC1=O [Compound 134] (X31-[Dab]T[Dap][Dab][Dab][dL][Abu][Dab][Dab]T; lactam 4-C) | 2 (≈ 1.75 µM) | 2 (≈ 1.75 µM) | 0.5 (≈ 0.437 µM) | 0.25 (≈ 0.219 µM) | <0.125 | <0.125 | 0.5 (≈ 0.437 µM) | 1 (≈ 0.874 µM) | 1 (≈ 0.874 µM) |
| CC[C@@H]1NC(=O)[C@@H](CC(C)C)NC(=O)[C@H](CCN)NC(=O)[C@@H](NC(=O)[C@H](CN)NC(=O)[C@@H](NC(=O)[C@H](CCN)NC(=O)c2ccc(F)cc2Cl)[C@@H](C)O)CCNC(=O)[C@H]([C@@H](C)O)NC(=O)[C@H](CCN)NC(=O)[C@H](CCN)NC1=O [Compound 135] (X28-[Dab]T[Dap][Dab][Dab][dL][Abu][Dab][Dab]T; lactam 4-C) | 1 (≈ 0.874 µM) | 4 (≈ 3.5 µM) | 1 (≈ 0.874 µM) | <0.125 | <0.125 | <0.125 | 0.5 (≈ 0.437 µM) | 1 (≈ 0.874 µM) | 2 (≈ 1.75 µM) |
| CC[C@@H]1NC(=O)[C@@H](CC(C)C)NC(=O)[C@H](CCN)NC(=O)[C@@H](NC(=O)[C@H](CN)NC(=O)[C@@H](NC(=O)[C@H](CCN)NC(=O)c2ccc(Cl)cc2C(F)(F)F)[C@@H](C)O)CCNC(=O)[C@H]([C@@H](C)O)NC(=O)[C@H](CCN)NC(=O)[C@H](CCN)NC1=O [Compound 136] (X38-[Dab]T[Dap][Dab][Dab][dL][Abu][Dab][Dab]T; lactam 4-C) | 0.5 (≈ 0.419 µM) | 0.5 (≈ 0.419 µM) | 0.25 (≈ 0.209 µM) | <0.125 | <0.125 | 0.25 (≈ 0.209 µM) | 0.5 (≈ 0.419 µM) | 2 (≈ 1.68 µM) | 1 (≈ 0.838 µM) |

Reference: patent publication USRE48335E1, “Polymyxin derivatives as antimicrobial compounds” (priority 2014, dated 2020)
